Assay results: publication PMC6277434, “Discovery of a potent HMG-CoA reductase degrader that eliminates statin-induced reductase accumulation and lowers cholesterol” (Nature Communications, 2018)
Values joined by “and” are separate entries in the source; they are usually repeats but may differ in a detail not shown here. Identical values can stand only once.

Columns and labels:
HMGCR = biological target: T1, HMGCR (Mus musculus, UniProt Q01237); assay: Immunoblotting of hepatic HMGCR protein (liver membrane fractions) of gavaged mice; type: in vivo
T1 construct: from tissue; host or cells: mouse liver (membrane fraction)
T1 sequence (Q01237 1-887): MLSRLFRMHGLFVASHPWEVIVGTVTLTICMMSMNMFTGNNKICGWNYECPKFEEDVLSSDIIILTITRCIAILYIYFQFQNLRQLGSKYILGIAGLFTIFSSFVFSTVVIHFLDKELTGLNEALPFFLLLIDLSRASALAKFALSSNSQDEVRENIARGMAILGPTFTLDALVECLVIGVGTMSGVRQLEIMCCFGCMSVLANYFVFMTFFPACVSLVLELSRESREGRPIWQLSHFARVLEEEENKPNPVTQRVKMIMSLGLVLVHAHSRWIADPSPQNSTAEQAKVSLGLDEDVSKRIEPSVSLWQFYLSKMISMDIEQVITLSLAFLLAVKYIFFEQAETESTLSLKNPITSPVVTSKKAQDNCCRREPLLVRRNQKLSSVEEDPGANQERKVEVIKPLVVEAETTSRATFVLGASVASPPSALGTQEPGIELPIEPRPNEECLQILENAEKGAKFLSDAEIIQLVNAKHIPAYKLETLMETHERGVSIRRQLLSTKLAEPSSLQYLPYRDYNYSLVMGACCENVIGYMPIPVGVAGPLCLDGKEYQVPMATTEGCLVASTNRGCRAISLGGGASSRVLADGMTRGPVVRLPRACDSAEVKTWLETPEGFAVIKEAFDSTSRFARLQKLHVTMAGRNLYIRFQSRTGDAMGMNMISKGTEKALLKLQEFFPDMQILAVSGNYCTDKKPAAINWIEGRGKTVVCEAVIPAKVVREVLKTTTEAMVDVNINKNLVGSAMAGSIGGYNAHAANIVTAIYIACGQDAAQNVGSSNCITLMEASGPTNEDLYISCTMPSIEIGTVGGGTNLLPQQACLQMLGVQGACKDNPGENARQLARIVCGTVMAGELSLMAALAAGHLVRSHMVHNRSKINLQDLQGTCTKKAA

[1] = system: Ldlr−/− mice on a western diet; assay: Atherosclerosis model: Ldlr−/− mice on western diet (Sudan IV aorta lesions, TC/TG, FPLC); type: in vivo; settings: for atherosclerotic lesions (en face Sudan IV staining of aortas), individual mice / atherosclerotic lesions (en face Sudan IV staining of aortas), mean: 60 mg/kg/day (each agent) gavage once daily 20 weeks; for aorta atherosclerotic lesions compared with vehicle / elevations of serum and liver TC and TG / serum cholesterol levels in VLDL, LDL and HDL (FPLC): 20 weeks; for aorta atherosclerotic lesions compared with vehicle: in words; for elevations of serum and liver TC and TG / serum cholesterol levels in VLDL, LDL and HDL (FPLC): Ldlr−/− mice, WD
From the text: Male C57BL/6 mice (8-week-old) were obtained from Shanghai Laboratory Animal Company (SLAC) (Shanghai, China). Male Ldlr^−/− mice (8-week-old) were obtained from Nanjing Biomedical Research Institute of Nanjing University (Nanjing, China). Mice had ad libitum access to water and standard chow diet (SLAC) unless mentioned otherwise. Special diets included medium-fat-medium-cholesterol diet (chow diet with10% fat, 0.2% cholesterol and 0.5% sodium cholate, custom made in SLAC), and western diet (20% fat, 1.25% cholesterol, 0.5% sodium cholate, D12109C, Research Diets). Mice were maintained in a pathogen-free environment and kept on a 12-h light/dark schedule. Mice were gavaged as described in figure legends with saline containing 0.5% methyl cellulose and 0.5% Tween-80. All mice were used in accordance with the guidelines approved by the Institutional Animal Care and Use Committee of Wuhan University.
Mice were anesthetized and blood collection was performed. Serum was prepared from blood by centrifuging at 1500 × g for 10 min. Livers were harvested and homogenized in a 2:1 mixture of chloroform and methanol using Precellys 24 (Bertin). The organic phase was dried under N2 and liver lipids were reconstituted in ethanol. Total cholesterol and triglyceride levels in the serum and liver were determined using Cholesterol Assay Kit and Triglyceride Assay Kit (Shanghai Kehua Bio-engineering, China).
To examine aorta atherosclerotic lesions, the aortic tree was isolated and fixed with 4% PFA. After removing perivascular adipose tissues, the atherosclerotic lesions were stained with Sudan IV for 10 min and washed with 70% ethanol for 3 min. The aortic tree was pinned to the black wax-filled petri dish containing PBS and imaged under a stereoscopic microscope (Olympus SZX16). The atherosclerotic lesions were quantified with Image J software (NIH)[66].
Serum lipoproteins were separated by FPLC (AKTA, GE Healthcare) using Superdex 75 10/300 GL (GE Healthcare) column. One hundred microliters pooled serum from five mice per group was diluted with 200 μl PBS, and loaded to the column. Fractions were eluted with PBS at a constant rate of 0.2 ml min^–1, and collected with 300 μl per tube. 100 μl fractions were used to quantify the concentration of total cholesterol level with the Amplex Red Cholesterol Assay Kit (Invitrogen). The cholesterol distribution curves of lipoproteins were done with GraphPad Prism 6 software.

Row | SMILES | liver HMGCR protein fold change, mean (HMGCR; C57BL/6J mice, chow diet, single agent 60 mg/kg/day gavage 10 days, vehicle = 1) | decrease of liver HMGCR amount (HMGCR; Cmpd 81 alone, 60 mg/kg/day, 10 days) [%] | decrease of liver HMGCR relative to lovastatin-treated samples (HMGCR; co-administration of Cmpd 81 with lovastatin, each 60 mg/kg/day, 10 days) [fold] | liver HMGCR protein fold change, mean (HMGCR; mouse, in vivo) | atherosclerotic lesions (en face Sudan IV staining of aortas), individual mice [1] | atherosclerotic lesions (en face Sudan IV staining of aortas), mean [1] | aorta atherosclerotic lesions compared with vehicle [1] | elevations of serum and liver TC and TG [1] | serum cholesterol levels in VLDL, LDL and HDL (FPLC) [1] | hepatic HMGCR protein level, mean (HMGCR; C57BL/6J mice, 60 mg/kg/day gavage once daily 7 days, vehicle = 1, 60 mg/kg/day) | hepatic HMGCR protein level, mean (HMGCR; C57BL/6J mice, 60 mg/kg/day gavage once daily 7 days, vehicle = 1, listed as lovastatin, 60 mg/kg/day) [fold] | hepatic HMGCR protein level, individual mice (HMGCR; C57BL/6J mice, 60 mg/kg/day gavage once daily 7 days, vehicle mean = 1, 60 mg/kg/day) | liver HMGCR protein fold change, mean (HMGCR; C57BL/6J mice, chow diet, single agent 60 mg/kg/day gavage 10 days, vehicle = 1, listed as Lova) | liver HMGCR protein fold change, mean (HMGCR; C57BL/6J mice, chow diet, single agent 60 mg/kg/day gavage 10 days, vehicle = 1, listed as lovastatin)
1 | C=CCC(O)(CC=C)CCCC(C)C1CCC2C3C(O)C=C4C(C)(C)C(O)CCC4(C)C3CCC12C (stereo not shown) [Cmpd 81] | 0.5524 | 50 | > 13 | ~ 2 | 32.5011 and 38.2916 and 37.5217 and 25.3733 and 31 | 32.9375 | Significantly less aorta lesions | significant effects on alleviating the elevations | remarkably reduced |  |  |  |  | 
2 | CC[C@H](C)C(=O)O[C@H]1C[C@@H](C)C=C2C=C[C@H](C)[C@H](CC[C@@H]3C[C@@H](O)CC(=O)O3)[C@H]21 [Lovastatin, lovastatin] |  |  |  |  | 31.5731 and 31.0783 and 37.0572 and 32.3991 and 25 | 31.4215 | Significantly less aorta lesions | significant effects on alleviating the elevations | remarkably reduced | 58.4 ± 3.5 fold and 58.3968 fold | 58 | 61.3526 and 59.2668 and 54.571 | 32.3047 | more than 30
